This note sets out measurements from the supplement of paper PMC10307832.

Test in all cases: relative viability (nuclei count vs DMSO), 5 days (fraction); higher = more cells survive
Compound in the assay “Venetoclax + Palbociclib”: CC1(C)CCC(CN2CCN(c3ccc(C(=O)NS(=O)(=O)c4ccc(NCC5CCOCC5)c([N+](=O)[O-])c4)c(Oc4cnc5[nH]ccc5c4)c3)CC2)=C(c2ccc(Cl)cc2)C1 [Venetoclax] + CC(=O)c1c(C)c2cnc(Nc3ccc(N4CCNCC4)cn3)nc2n(C2CCCC2)c1=O [Palbociclib] (partner 0.5 µM)
In a few lines: (§1)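 Dosing by pin tool came one day after lung cancer cell lines were seeded in 1536-well plates, using either one drug or a fixed anchor-drug dose plus five library-drug doses (not always all listed) in √10 steps. After 5 days, nuclei were counted on 4× images. Relative viability is treated-well nuclei count divided by vehicle-well nuclei count, and values are medians of duplicate plates.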

Compound in the assay “Venetoclax + Tozasertib”: CC1(C)CCC(CN2CCN(c3ccc(C(=O)NS(=O)(=O)c4ccc(NCC5CCOCC5)c([N+](=O)[O-])c4)c(Oc4cnc5[nH]ccc5c4)c3)CC2)=C(c2ccc(Cl)cc2)C1 [Venetoclax] + Cc1cc(Nc2cc(N3CCN(C)CC3)nc(Sc3ccc(NC(=O)C4CC4)cc3)n2)n[nH]1 [Tozasertib] (partner 0.1 µM)
In outline:
as §1

Compound in another assay: CC1(C)CCC(CN2CCN(c3ccc(C(=O)NS(=O)(=O)c4ccc(NCC5CCOCC5)c([N+](=O)[O-])c4)c(Oc4cnc5[nH]ccc5c4)c3)CC2)=C(c2ccc(Cl)cc2)C1 [Venetoclax]
In a few lines: (§2)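 Lung cancer cell lines in 1536-well plates were exposed by pinning to five library-drug doses (not always all listed) √10 apart, following an overnight hold at 37 °C. MetaXpress counted Hoechst-stained nuclei from 4× images taken after 5 days without medium change. Viability is the median ratio of treated-well to vehicle-well nuclei across plates. Plates required control CV below 25% and at least one doubling.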

Compound in the next assay: Cn1cnc2c(F)c(Nc3ccc(Br)cc3Cl)c(C(=O)NOCCO)cc21 [Selumetinib]
In outline:
as §2

As for UMC-11, the relative viability was found to be 0.37 with Venetoclax + Palbociclib (first compound 0.01 µM); 0.334 in the assay with Venetoclax + Palbociclib (first compound 0.03162 µM); 0.277 with Venetoclax + Palbociclib (first compound 0.1 µM); 0.304 with Venetoclax + Palbociclib (first compound 0.3162 µM); 0.324 with Venetoclax + Palbociclib (first compound 1 µM); 0.205 with Venetoclax + Tozasertib (first compound 0.01 µM). The relative viability with Venetoclax + Tozasertib (first compound 0.03162 µM) was 0.213; in the assay with Venetoclax + Tozasertib (first compound 0.1 µM), 0.2; with Venetoclax + Tozasertib (first compound 0.3162 µM), 0.191; with Venetoclax + Tozasertib (first compound 1 µM), 0.187; with Venetoclax (0.01 µM), 0.958; with Venetoclax (0.03162 µM) it was 1. Moreover, the relative viability in the assay with Venetoclax (0.1 µM) stood at 0.901; with Venetoclax (0.3162 µM), 0.944; with Venetoclax (1 µM), 0.927; with Selumetinib (0.02 µM), 0.936; in the assay with Selumetinib (0.06325 µM) it was 0.909; in the assay with Selumetinib (0.2 µM) it was 1.01. In addition, the relative viability in the assay with Selumetinib (0.6325 µM) was found to be 1.04.
